Structures can show the parent of a compound that is named as a salt.
Tests used:
c-MET = c-MET (Homo sapiens, UniProt P08581); test: MET luminescence-based enzyme assay (Kinase-Glo); assay type: biochemical
Protocol: The subscript designates positive or negative controls. The Z′ score for a robust screening assay should be ≧0.50. The typical threshold=μ+−3*σ+. Any value that falls below the threshold was designated a “hit”.
MET Luminescence-Based Enzyme Assay
MET kinase (see below), Kinase-Glo™ (Promega Cat#V6712).
Negative controls contained 10 μM staurosporine.

GTL16 cells = test: 96-well XTT cell survival assay (GTL16 cells); assay type: cell-based; conditions: Homo sapiens, GTL 16, 72 hours
Protocol: GTL16 cells were maintained in DMEM Medium supplemented with 10% fetal bovine serum (FBS) 2 mM L-Glutamine and 100 units penicillin/100 μg streptomycin, at 37° C. in 5% CO2.
Compounds were tested in the following assays in duplicate.
96-well XTT assay (GTL16 cells): One day prior to assay the growth media was aspirated off and assay media was added to cells. On the day of the assay, the cells were grown in assay media containing various concentrations of compounds (duplicates) on a 96-well flat bottom plate for 72 hours at 37° C. in 5% CO2. The starting cell number was 5000 cells per well and volume was 120 μl. At the end of the 72-hour incubation, 40 μl of XTT labeling mixture (50:1 solution of sodium 3′-[1-(phenylaminocarbonyl)-3,4-tetrazolium]-bis (4-methoxy-6-nitro) benzene sulfonic acid hydrate and Electron-coupling reagent: PMS (N-methyl dibenzopyrazine methyl sulfate) were added to each well of the plate. After an additional 5 hours of incubation at 37° C., the absorbance reading at 450 nm with a background correction of 650 nm was measured with a spectrophotometer.

c-MET, sequence (P08581 1078-1345 limits assumed): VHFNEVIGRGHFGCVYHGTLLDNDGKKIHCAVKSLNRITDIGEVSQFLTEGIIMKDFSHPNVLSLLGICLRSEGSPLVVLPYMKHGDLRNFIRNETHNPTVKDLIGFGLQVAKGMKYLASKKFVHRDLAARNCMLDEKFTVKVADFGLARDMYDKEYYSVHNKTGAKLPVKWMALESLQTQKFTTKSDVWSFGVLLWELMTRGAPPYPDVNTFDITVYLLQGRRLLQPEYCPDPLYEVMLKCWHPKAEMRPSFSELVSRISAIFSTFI

Row | IC50 (c-MET) | Compound | IC50 (GTL16 cells)
1 | < 100 nM | CCN1CC(n2cc(-c3cnc4ccc(Sc5nnc6ccc(C)nn56)cc4c3)cn2)C1 [Compound 61, 3-[1-(1-Ethyl-azetidin-3-yl)-1H-pyrazol-4-yl]-6-(6-methyl-[1,2,4]triazolo[4,3-b]pyridazin-3-ylsulfanyl)-quinoline] | ≤ 100 nM
2 | < 100 nM | CCc1ccc2nnc(Sc3ccc4ncc(-c5cnn(C6CN(CC)C6)c5)cc4c3)n2n1 [Compound 70, 3-[1-(1-Ethyl-azetidin-3-yl)-1H-pyrazol-4-yl]-6-(6-ethyl-[1,2,4]triazolo[4,3-b]pyridazin-3-ylsulfanyl)-quinoline] | ≤ 100 nM
3 | < 100 nM | CCc1ccc2nnc(Sc3ccc4ncc(-c5cnn(C)c5)cc4c3)n2n1 [Compound 58, 6-(6-Ethyl-[1,2,4]triazolo[4,3-b]pyridazin-3-ylsulfanyl)-3-(1-methyl-1H-pyrazol-4-yl)-quinoline] | ≤ 100 nM
4 | < 100 nM | Cc1ccc2nnc(Sc3ccc4ncc(-c5cnn(C)c5)cc4c3F)n2n1 [Compound 56, 5-Fluoro-3-(1-methyl-1H-pyrazol-4-yl)-6-(6-methyl-[1,2,4]triazolo[4,3-b]pyridazin-3-ylsulfanyl)-quinoline] | ≤ 100 nM
5 | > 10000 nM | Cc1ccc2nnc(Sc3ccc4nccc(Sc5nncn5C)c4c3)n2n1 [Compound 57, 6-(6-Methyl-[1,2,4]triazolo[4,3-b]pyridazin-3-ylsulfanyl)-4-(4-methyl-4H-[1,2,4]triazol-3-ylsulfanyl)-quinoline] | –
6 | < 100 nM | Cc1ccc2nnc(Sc3ccc4ncc(-c5cn[nH]c5)cc4c3)n2n1 [Compound 59, 6-(6-Methyl-[1,2,4]triazolo[4,3-b]pyridazin-3-ylsulfanyl)-3-(1H-pyrazol-4-yl)-quinoline] | 100 to 1000 nM
7 | < 100 nM | Cc1ccc2nnc(Sc3cc4cc(-c5cnn(C)c5)cnc4cc3F)n2n1 [Compound 52, 7-Fluoro-3-(1-methyl-1H-pyrazol-4-yl)-6-(6-methyl-[1,2,4]triazolo[4,3-b]pyridazin-3-ylsulfanyl)-quinoline] | ≤ 100 nM
8 | < 100 nM | Cc1ccc2nnc(Sc3ccc4ncc(-c5cnn(C6CN(C(C)C)C6)c5)cc4c3)n2n1 [Compound 69, 3-[1-(1-Isopropyl-azetidin-3-yl)-1H-pyrazol-4-yl]-6-(6-methyl-[1,2,4]triazolo[4,3-b]pyridazin-3-ylsulfanyl)-quinoline] | ≤ 100 nM
9 | 100 to 1000 nM | Cc1cnc2ccc(Sc3nnc4ccc(C)nn34)cc2c1 [Compound 54, 3-Methyl-6-(6-methyl-[1,2,4]triazolo[4,3-b]pyridazin-3-ylsulfanyl)-quinoline] | –
10 | < 100 nM | CCc1ccnc2ccc(Sc3nnc4ccc(-c5cnn(C)c5)nn34)cc12 [Compound 60, 4-Ethyl-6-[6-(1-methyl-1H-pyrazol-4-yl)-[1,2,4]triazolo[4,3-b]pyridazin-3-ylsulfanyl]-quinoline] | ≤ 100 nM

The next lines start with the compound.

Row | Compound | IC50 (c-MET) | IC50 (GTL16 cells)
11 | Cn1cc(-c2ccc3nnc(Sc4ccc5nccc(OCCO)c5c4)n3n2)cn1 [Compound 50, 2-{6-[6-(1-Methyl-1H-pyrazol-4-yl)-[1,2,4]triazolo[4,3-b]pyridazin-3-ylsulfanyl]-quinolin-4-yloxy}-ethanol] | < 100 nM | ≤ 100 nM
12 | Cc1cc2ncccc2cc1Sc1nnc2ccc(-c3cnn(C)c3)nn12 [Compound 16, 7-Methyl-6-[6-(1-methyl-1H-pyrazol-4-yl)-[1,2,4]triazolo[4,3-b]pyridazin-3-ylsulfanyl]-quinoline] | < 100 nM | ≤ 100 nM
13 | CN(C)c1ccnc2ccc(Sc3nnc4ccc(-c5cnn(C)c5)nn34)cc12 [Compound 29, Dimethyl-{6-[6-(1-methyl-1H-pyrazol-4-yl)-[1,2,4]triazolo[4,3-b]pyridazin-3-ylsulfanyl]-quinolin-4-yl}-amine] | 100 to 1000 nM | –
14 | Fc1cccc(-c2cnc3nnc(Sc4ccc5ncccc5c4)n3n2)c1 [Compound 9, 6-[6-(3-Fluoro-phenyl)-[1,2,4]triazolo[4,3-b][1,2,4]triazin-3-ylsulfanyl]-quinoline] | < 100 nM | ≤ 100 nM
15 | Cc1ccc2nnc(Sc3ccc4ncccc4c3)n2n1 [Compound 37, 6-(6-Methyl-[1,2,4]triazolo[4,3-b]pyridazin-3-ylsulfanyl)-quinoline] | 100 to 1000 nM | –
16 | Cc1ccc2nnc(Sc3ccc4ncc(-c5cnn(CCN6CCOCC6)c5)cc4c3)n2n1 [Compound 44, 6-(6-Methyl-[1,2,4]triazolo[4,3-b]pyridazin-3-ylsulfanyl)-3-[1-(2-morpholin-4-yl-ethyl)-1H-pyrazol-4-yl]-quinoline] | < 100 nM | ≤ 100 nM
17 | CNc1ccc2nnc(Sc3ccc4nccc(Sc5nnc6ccc(NC)nn56)c4c3)n2n1 [Compound 48, 4,6-{6-Methylamino-[1,2,4]triazolo[4,3-b]pyridazin-3-ylsulfanyl}-quinoline] | > 10000 nM | –
18 | c1ccc(-c2ccc3nnc(Sc4ccc5ncccc5c4)n3n2)cc1 [Compound 1, 6-(6-Phenyl-[1,2,4]triazolo[4,3-b]pyridazin-3-ylsulfanyl)-quinoline] | < 100 nM | ≤ 100 nM
19 | Cn1cc(-c2cnc3ccc(Sc4nnc5ccc(-c6cnn(C)c6)nn45)cc3c2)cn1 [Compound 40, 3-(1-Methyl-1H-pyrazol-4-yl)-6-[6-(1-methyl-1H-pyrazol-4-yl)-[1,2,4]triazolo[4,3-b]pyridazin-3-ylsulfanyl]-quinoline] | < 100 nM | ≤ 100 nM
20 | Cn1cc(-c2ccc3nnc(Sc4ccc5nccc(N)c5c4)n3n2)cn1 [Compound 34, 6-[6-(1-Methyl-1H-pyrazol-4-yl)-[1,2,4]triazolo[4,3-b]pyridazin-3-ylsulfanyl]-quinolin-4-ylamine, trifluoroacetic acid salt] | 100 to 1000 nM | –
21 | Cn1cc(-c2cnc3[nH]cc(Sc4nnc5ccc(-c6cnn(C)c6)nn45)c3c2)cn1 [Compound 46, 6-(1-Methyl-1H-pyrazol-4-yl)-3-[5-(1-methyl-1H-pyrazol-4-yl)-1H-pyrrolo[2,3-b]pyridin-3-ylsulfanyl]-[1,2,4]triazolo[4,3-b]pyridazine] | < 100 nM | ≤ 100 nM
22 | Cn1cc(-c2ccc3nnc(Sc4ccc5nccc(NC(=O)OC(C)(C)C)c5c4)n3n2)cn1 [Compound 36, {6-[6-(1-Methyl-1H-pyrazol-4-yl)-[1,2,4]triazolo[4,3-b]pyridazin-3-ylsulfanyl]-quinolin-4-yl}-carbamic acid tert-butyl ester] | 1000 to 10000 nM | –
23 | COc1ccnc2ccc(Sc3nnc4ccc(-c5cnn(C)c5)nn34)cc12 [Compound 26, 4-Methoxy-6-[6-(1-methyl-1H-pyrazol-4-yl)-[1,2,4]triazolo[4,3-b]pyridazin-3-ylsulfanyl]-quinoline] | < 100 nM | ≤ 100 nM
24 | CNC(=O)c1ccc(-c2ccc3nnc(Sc4cc5cccnc5cc4F)n3n2)cc1F [Compound 17, 2-Fluoro-4-[3-(7-fluoro-quinolin-6-ylsulfanyl)-[1,2,4]triazolo[4,3-b]pyridazin-6-yl]-N-methyl-benzamide] | < 100 nM | ≤ 100 nM
25 | Cn1cc(-c2ccc3nnc(Sc4ccc5ncc(N)cc5c4)n3n2)cn1 [Compound 33, 6-[6-(1-Methyl-1H-pyrazol-4-yl)-[1,2,4]triazolo[4,3-b]pyridazin-3-ylsulfanyl]-quinolin-3-ylamine, trifluoroacetic acid salt] | < 100 nM | ≤ 100 nM
26 | CNc1ccc2nnc(Sc3ccc4ncccc4c3-c3cnn(C)c3)n2n1 [Compound 49, Methyl-{3-[5-(1-methyl-1H-pyrazol-4-yl)-quinolin-6-ylsulfanyl]-[1,2,4]triazolo[4,3-b]pyridazin-6-yl}-amine] | > 10000 nM | –
27 | Cc1cc2cc(Sc3nnc4ccc(-c5cnn(C)c5)nn34)ccc2nc1N [Compound 24, 3-Methyl-6-[6-(1-methyl-1H-pyrazol-4-yl)-[1,2,4]triazolo[4,3-b]pyridazin-3-ylsulfanyl]-quinolin-2-ylamine] | 100 to 1000 nM | –
28 | Cc1ccc2nnc(Sc3cc4cccnc4cc3F)n2n1 [Compound 51, 7-Fluoro-6-(6-methyl-[1,2,4]triazolo[4,3-b]pyridazin-3-ylsulfanyl)-quinoline] | 100 to 1000 nM | –
29 | Cc1ccc2nnc(Sc3ccc4ncc(Br)cc4c3)n2n1 [Compound 43, 3-Bromo-6-(6-methyl-[1,2,4]triazolo[4,3-b]pyridazin-3-ylsulfanyl)-quinoline] | 100 to 1000 nM | –
30 | Methyl-{3-[4-(4-methyl-4H-[1,2,4]triazol-3-ylsulfanyl)-quinolin-6-ylsulfanyl]-[1,2,4]triazolo[4,3-b]pyridazin-6-yl}-amine (A), Methyl-{3-[6-(4-methyl-4H-[1,2,4]triazol-3-ylsulfanyl)-quinolin-4-ylsulfanyl]-[1,2,4]triazolo[4,3-b]pyridazin-6-yl}-amine (B) [Compound 47] | 1000 to 10000 nM | –
31 | CNc1ccnc2ccc(Sc3nnc4ccc(-c5cnn(C)c5)nn34)cc12 [Compound 28, Methyl-{6-[6-(1-methyl-1H-pyrazol-4-yl)-[1,2,4]triazolo[4,3-b]pyridazin-3-ylsulfanyl]-quinolin-4-yl}-amine] | 1000 to 10000 nM | –
32 | Cn1cc(-c2ccc3nnc(Sc4ccc5c(ccc[n+]5[O-])c4)n3n2)cn1 [Compound 27, 6-[6-(1-Methyl-1H-pyrazol-4-yl)-[1,2,4]triazolo[4,3-b]pyridazin-3-ylsulfanyl]-quinoline, N-oxide] | 1000 to 10000 nM | –
